Assay results: patent publication US20160120863A1, “SLC2A TRANSPORTER INHIBITORS” (IOMET PHARMA LTD., priority 2013, published 2016)

What was measured:
human GLUT2 = molecular target: T1, human GLUT2 (Homo sapiens, UniProt P11168); assay: [3H]-deoxy-D-glucose uptake assay, GLUT2; type: cell-based; details: [3H]-deoxy-D-glucose uptake in HEK293 cells stably expressing human GLUT2
T1 construct: expressed in transfected cells
T1 sequence (P11168 1-524): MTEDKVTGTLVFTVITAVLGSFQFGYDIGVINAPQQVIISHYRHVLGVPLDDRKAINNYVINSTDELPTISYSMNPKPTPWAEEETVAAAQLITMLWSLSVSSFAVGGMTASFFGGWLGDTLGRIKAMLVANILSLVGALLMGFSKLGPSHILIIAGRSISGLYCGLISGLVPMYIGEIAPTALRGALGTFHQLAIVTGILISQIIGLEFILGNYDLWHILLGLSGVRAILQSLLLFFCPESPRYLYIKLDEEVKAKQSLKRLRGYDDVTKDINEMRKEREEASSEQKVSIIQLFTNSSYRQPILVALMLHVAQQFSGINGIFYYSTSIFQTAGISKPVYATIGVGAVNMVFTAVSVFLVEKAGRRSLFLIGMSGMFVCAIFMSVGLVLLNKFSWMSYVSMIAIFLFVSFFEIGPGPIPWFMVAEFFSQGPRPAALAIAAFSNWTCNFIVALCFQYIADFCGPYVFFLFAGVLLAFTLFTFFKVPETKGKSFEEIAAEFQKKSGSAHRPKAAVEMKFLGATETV
Experimental: HEK293 cells were engineered to stably express either human GLUT1, GLUT2, GLUt3 or GLUT4 by transfection with the pReceiver-Lv105 plasmid, containing either hGLUT1, hGLUT2, hGLUT3, or hGLUT4 gene constructs with lipofectamine 2000, hGLUT1- hGLUT2- hGLUT3- or hGLUT4-overexpressing polyclonal populations were isolated under purinomycin selective pressure (1 μg/ml) and maintained in Dulbecco's modified Eagle's medium supplemented with 1 μg/ml purinomycin+10% foetal bovine serum (FBS).
60,000 cells per well were seeded overnight into poly-D-lysine coasted 96-well plates. […] 90 μl of test compounds were added in glucose-free uptake buffer and cells were incubated at 37° C. for 30 min.
Cells were then washed twice with ice-cold PBS and 100 μl of Microscint-20 was added per well. Glucose uptake was quantified with a scintillation counter. The half maximal inhibitory concentration (IC50) (a measure of the effectiveness of the test compound in inhibiting glucose uptake) was determined.

human GLUT1 = molecular target: T2, human GLUT1 (Homo sapiens, UniProt P11166); assay: [3H]-deoxy-D-glucose uptake assay, GLUT1; type: cell-based; details: [3H]-deoxy-D-glucose uptake in HEK293 cells stably expressing human GLUT1
T2 construct: expressed in transfected cells
T2 sequence (P11166 1-492): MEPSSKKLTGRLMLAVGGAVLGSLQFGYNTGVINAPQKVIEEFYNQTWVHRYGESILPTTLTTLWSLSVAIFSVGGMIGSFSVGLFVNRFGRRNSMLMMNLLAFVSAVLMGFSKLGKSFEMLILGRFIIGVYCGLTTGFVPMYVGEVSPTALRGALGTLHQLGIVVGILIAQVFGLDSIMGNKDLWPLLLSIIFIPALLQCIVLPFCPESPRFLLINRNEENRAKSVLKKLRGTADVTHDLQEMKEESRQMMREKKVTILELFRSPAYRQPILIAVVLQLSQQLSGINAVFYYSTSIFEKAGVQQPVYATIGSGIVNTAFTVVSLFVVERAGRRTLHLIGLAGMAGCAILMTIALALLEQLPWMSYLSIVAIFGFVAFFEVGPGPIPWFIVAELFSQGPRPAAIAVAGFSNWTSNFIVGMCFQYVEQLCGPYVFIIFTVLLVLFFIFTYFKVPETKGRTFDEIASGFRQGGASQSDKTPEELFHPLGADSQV
Method in brief: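 HEK293 cells stably overexpressing human GLUT1 or GLUT2, seeded at 60,000 per well, treated with compounds in glucose-free uptake buffer for 30 min at 37 °C. [3H]-deoxy-D-glucose uptake quantified by scintillation counting after ice-cold PBS washes; IC50 determined.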

Structure (SMILES) | GLUT2 pIC50 (human GLUT2) | GLUT1 pIC50 (human GLUT1)
N#Cc1ccccc1-c1ccc2nc(-c3ccc(Cl)cc3)c(CN3CCOCC3)n2c1 [Compound 91] | +++ (pIC50 ≧ 6.00) | +++ (pIC50 ≧ 6.00)
COc1ccc(C(=O)N2CCN(Cc3c(-c4ccc(Cl)cc4)nc4ccc(-c5ccccc5)cn34)CC2)cc1 [Compound 126] | +++ (pIC50 ≧ 6.00) | +++ (pIC50 ≧ 6.00)
O=C(Nc1cccc(F)c1)N1CCN(Cc2c(-c3ccc(Cl)cc3)nc3ccc(-c4ccccc4)cn23)CC1 [Compound 127] | +− (pIC50 < 4.00) | +− (pIC50 < 4.00)
O=C(C1COC1)N1CCN(Cc2c(-c3ccc(Cl)cc3)nc3ccc(-c4ccccc4)cn23)CC1 [Compound 171] | +++ (pIC50 ≧ 6.00) | +++ (pIC50 ≧ 6.00)
CC(C)c1cn2c(CN3CCOCC3)c(-c3ccc(Cl)cc3)nc2cn1 [Compound 217] | +++ (pIC50 ≧ 6.00) | +++ (pIC50 ≧ 6.00)
CC(=O)N1CCN(Cc2c(-c3ccc(Cl)cc3)nc3cnc(-c4ccccc4C#N)cn23)CC1 [Compound 224] | +++ (pIC50 ≧ 6.00) | +++ (pIC50 ≧ 6.00)
O=C1CCN(Cc2c(-c3ccc(Cl)cc3)nc3ccc(-c4ccccc4)cn23)CCN1 [Compound 227] | +++ (pIC50 ≧ 6.00) | +++ (pIC50 ≧ 6.00)
CN1CCN(Cc2c(-c3ccc(Cl)cc3)nc3ccc(-c4ccccc4)cn23)CCC1=O [Compound 232] | +++ (pIC50 ≧ 6.00) | +++ (pIC50 ≧ 6.00)
N#Cc1cccc(F)c1-c1ccc2nc(-c3ccc(Cl)cc3)c(CN3CCOCC3)n2c1 [Compound 236] | +++ (pIC50 ≧ 6.00) | +++ (pIC50 ≧ 6.00)
CN1CCN(Cc2c(-c3ccc(Cl)cc3)nc3ccc(-c4ccccc4C#N)cn23)CC1=O [Compound 247] | +++ (pIC50 ≧ 6.00) | +++ (pIC50 ≧ 6.00)
CCC(=O)N1CCN(Cc2c(-c3ccc(Cl)cc3)nc3cnc(C4CC4)cn23)CC1 [Compound 253] | +++ (pIC50 ≧ 6.00) | +++ (pIC50 ≧ 6.00)
CC(=O)N1CCN(Cc2c(-c3ccc(Cl)cc3)nc3ccc(NS(C)(=O)=O)cn23)CC1 [Compound 259] | ++ (pIC50 5.00-5.99) | +++ (pIC50 ≧ 6.00)
Clc1ccc(-c2nc3cnc(C4CC4)cn3c2CN2CCn3ncnc3C2)cc1 [Compound 261] | +++ (pIC50 ≧ 6.00) | +++ (pIC50 ≧ 6.00)
N#Cc1ccccc1-c1cn2c(CN3CCOCC3)c(-c3ccc(Cl)cc3)nc2cn1 [Compound 269] | ++ (pIC50 5.00-5.99) | +++ (pIC50 ≧ 6.00)
O=C1CN(Cc2c(-c3ccc(Cl)cc3Cl)nc3cnc(C4CC4)cn23)CCN1 [Compound 272] | +++ (pIC50 ≧ 6.00) | +++ (pIC50 ≧ 6.00)
O=C1CN(Cc2c(-c3ccc(Cl)cc3)nc3ccc(-c4ncon4)cn23)CCN1 [Compound 278] | ++ (pIC50 5.00-5.99) | ++ (pIC50 5.00-5.99)
CC(=O)N1CCN(Cc2c(-c3ccc(Cl)cc3)nc3ccc(N(C)S(C)(=O)=O)cn23)CC1 [Compound 292] | ++ (pIC50 5.00-5.99) | +++ (pIC50 ≧ 6.00)
O=C1CN(Cc2c(-c3ccc(Cl)cc3)nc3ccc(-c4ccccn4)cn23)CCN1 [Compound 294] | +++ (pIC50 ≧ 6.00) | +++ (pIC50 ≧ 6.00)

Structure (SMILES) | GLUT2 pIC50 (human GLUT2) | GLUT1 pIC50 (human GLUT1)
CC(=O)N1CCN(Cc2c(-c3ccc(Cl)cc3)nc3ccc(-c4ccccn4)cn23)CC1 [Compound 295] | +++ (pIC50 ≧ 6.00) | +++ (pIC50 ≧ 6.00)
Clc1ccc(-c2nc3ccc(C4COC4)cn3c2CN2CCOCC2)cc1 [Compound 298] | +− (pIC50 < 4.00) | ++ (pIC50 5.00-5.99)
Clc1ccc(-c2nc3ccc(-c4ccccn4)cn3c2CN2CCn3ncnc3C2)c(Cl)c1 [Compound 299] | +++ (pIC50 ≧ 6.00) | +++ (pIC50 ≧ 6.00)
O=C(Cc1c(-c2ccc(Cl)cc2)nc2ccc(-c3ccccc3)cn12)N1CCOCC1 [Compound 301] | ++ (pIC50 5.00-5.99) | +− (pIC50 < 4.00)
CCOC(=O)Cc1c(-c2ccc(Cl)cc2)nc2ccc(-c3ccccc3)cn12 [Compound 302] | ++ (pIC50 5.00-5.99) | +− (pIC50 < 4.00)
CN(c1ccc2nc(-c3ccc(Cl)cc3)c(CN3CCNCC3)n2c1)S(C)(=O)=O [Compound 304] | +− (pIC50 < 4.00) | ++ (pIC50 5.00-5.99)
c1ccc(-c2ccc3nc(C4CCOCC4)c(CN4CCOCC4)n3c2)cc1 [Compound 305] | +− (pIC50 < 4.00) | +− (pIC50 < 4.00)
COCC(=O)N1CCN(Cc2c(-c3ccc(Cl)cc3Cl)nc3ccc(-c4ncon4)cn23)CC1 [Compound 307] | ++ (pIC50 5.00-5.99) | +++ (pIC50 ≧ 6.00)
CC(C)(O)C(=O)N1CCN(Cc2c(-c3ccc(Cl)cc3)nc3ccc(-c4ccccc4)cn23)CC1 [Compound 308] | +++ (pIC50 ≧ 6.00) | +++ (pIC50 ≧ 6.00)
CC(=O)N1CCN(Cc2c(-c3ccc(Cl)cc3Cl)nc3ccc(-c4ncon4)cn23)CC1 [Compound 312] | +++ (pIC50 ≧ 6.00) | +++ (pIC50 ≧ 6.00)
COCCS(=O)(=O)Nc1ccc2nc(-c3ccc(Cl)cc3)c(CN3CCN(C(C)=O)CC3)n2c1 [Compound 315] | +− (pIC50 < 4.00) | ++ (pIC50 5.00-5.99)
CC(=O)N1CCN(Cc2c(-c3ccc(Cl)cc3)nc3ccc(NS(=O)(=O)C(C)C)cn23)CC1 [Compound 317] | ++ (pIC50 5.00-5.99) | ++ (pIC50 5.00-5.99)
CC(=O)N1CCN(Cc2c(-c3ccc(Cl)cc3)nc3ccc(NS(=O)(=O)C4CC4)cn23)CC1 [Compound 318] | ++ (pIC50 5.00-5.99) | +++ (pIC50 ≧ 6.00)
CCCS(=O)(=O)Nc1ccc2nc(-c3ccc(Cl)cc3)c(CN3CCN(C(C)=O)CC3)n2c1 [Compound 319] | ++ (pIC50 5.00-5.99) | +++ (pIC50 ≧ 6.00)
CC(=O)N1CCN(Cc2c(-c3ccc(Cl)cc3)nc3ccc(N4CCCS4(=O)=O)cn23)CC1 [Compound 320] | +++ (pIC50 ≧ 6.00) | +++ (pIC50 ≧ 6.00)
Clc1ccc(-c2nc3cnc(C4CC4)cn3c2CN2CCn3ncnc3C2)c(Cl)c1 [Compound 323] | +++ (pIC50 ≧ 6.00) | +++ (pIC50 ≧ 6.00)
CN(c1ccc2nc(-c3ccc(Cl)cc3)c(CN3CCn4ncnc4C3)n2c1)S(C)(=O)=O [Compound 324] | ++ (pIC50 5.00-5.99) | +++ (pIC50 ≧ 6.00)
